# In US20240308996A1, “PYRIDOPYRIDINES AND DERIVATIVES THEREOF AS SELECTIVE KINASE INHIBITORS” (University of Sharjah, priority 2023, published 2024):
# Experiments:
# Type in all cases: cell-based
# SK-OV-3 = assay: NCI-60 cell line panel: SK-OV-3; details: Ovarian Cancer; for IC50: Homo sapiens; for TGI: total growth inhibition
# Protocol: (§1) It was carried out at the NCI, Bethesda, MD, USA, utilizing their standard protocol.
# UACC-257 = assay: NCI-60 cell line panel: UACC-257; details: Melanoma; for IC50: Homo sapiens; for TGI: total growth inhibition
# Protocol: as §1
# SK-MEL-5 = assay: NCI-60 cell line panel: SK-MEL-5; details: Melanoma; for IC50: Homo sapiens; for TGI: total growth inhibition
# Protocol: as §1
# Hep3B = assay: MTT assay, Hep3B HCC cell line; details: Homo sapiens, 48 h, mean of triplicate assays ± SEM
# Protocol: (§2) Two HCC cell lines (Hep3B and HepG2) were used for screening the antiproliferative activity of the synthesized compounds. The cell lines were obtained from the European Collection of Cell Cultures (ECACC, UK) and maintained in Dulbecco's Modified Eagle Medium (DMEM: Sigma-Aldrich) supplemented with 10% fetal bovine serum (FBS) and 1% penicillin/streptomycin and incubated at 37° C. in a 5% CO2 air atmosphere. In addition, WI-38 normal cell line was used to investigate the safety of these compounds.
# MTT assay was conducted to calculate the IC50 of the compounds following the reported procedure . Briefly, the cells were seeded in 96-well tissue culture plates with a density of 5×10^4 cells/well and incubated overnight at 37° C. in a 5% CO2 air atmosphere. […] DMSO was used as a negative control. After 48 h, the media were aspirated, and replaced with media containing 0.5 mg/mL of MTT tetrazolium dye (Sigma-Aldrich) for 2 h at 37° C. Finally, the media were removed and 200 μL of DMSO was added to solubilize the formazan crystals. Absorbance was then measured at 570 nm using Varioskan Flash multimode plate reader (Thermo Scientific, Massachusetts, USA).
# HOP-62 = assay: NCI-60 cell line panel: HOP-62; details: Non-Small Cell Lung Cancer; for IC50: Homo sapiens; for TGI: total growth inhibition
# Protocol: as §1
# [1] = system: hepatocellular carcinoma cell lines; assay: Screening against HCC cell lines
# Protocol: The target compounds were tested against hepatocellular carcinoma cell lines. Compounds 1j. 13a. 13b. 13c. […] The mean inhibition percentage values are illustrated in Table 9.
# as §2
# MTT assay was conducted to calculate the IC50 of the compounds following the reported procedure . Briefly, the cells were seeded in 96-well tissue culture plates with a density of 5×10^4 cells/well and incubated overnight at 37° C. in a 5% CO2 air atmosphere. After that, cells were treated with the newly synthesized compounds or sorafenib as a positive control. DMSO was used as a negative control. After 48 h, the media were aspirated, and replaced with media containing 0.5 mg/mL of MTT tetrazolium dye (Sigma-Aldrich) for 2 h at 37° C. Finally, the media were removed and 200 μL of DMSO was added to solubilize the formazan crystals. Absorbance was then measured at 570 nm using Varioskan Flash multimode plate reader (Thermo Scientific, Massachusetts, USA).
# T-47D = assay: NCI-60 cell line panel: T-47D; details: Breast Cancer; for TGI: total growth inhibition; for IC50: Homo sapiens, T47D
# Protocol: as §1
# NCI/ADR-RES = assay: NCI-60 cell line panel: NCI/ADR-RES; set-up: TGI: unit not given here; details: Ovarian Cancer; for IC50: Homo sapiens; for TGI: total growth inhibition
# Protocol: as §1
# PC-3 = assay: NCI-60 cell line panel: PC-3; details: Prostate Cancer; for IC50: Homo sapiens; for TGI: total growth inhibition
# Protocol: as §1
# UACC-62 = assay: NCI-60 cell line panel: UACC-62; details: Melanoma; for IC50: Homo sapiens; for TGI: total growth inhibition
# Protocol: as §1
# DU-145 = assay: NCI-60 cell line panel: DU-145; details: Prostate Cancer; for IC50: Homo sapiens; for TGI: total growth inhibition
# Protocol: as §1
# OVCAR-8 = assay: NCI-60 cell line panel: OVCAR-8; details: Ovarian Cancer; for IC50: Homo sapiens; for TGI: total growth inhibition, in µM (unit assumed)
# Protocol: as §1
# HOP-92 = assay: NCI-60 cell line panel: HOP-92; set-up: TGI: unit not given here; details: Non-Small Cell Lung Cancer; for IC50: Homo sapiens; for TGI: total growth inhibition
# Protocol: as §1
# A498 = assay: NCI-60 cell line panel: A498; details: Renal Cancer; for IC50: Homo sapiens; for TGI: total growth inhibition
# Protocol: as §1
# NCI-H460 = assay: NCI-60 cell line panel: NCI-H460; details: Non-Small Cell Lung Cancer; for IC50: Homo sapiens; for TGI: total growth inhibition
# Protocol: as §1
# CAKI-1 = assay: NCI-60 cell line panel: CAKI-1; set-up: TGI: unit not given here; details: Renal Cancer; for IC50: Homo sapiens; for TGI: total growth inhibition
# Protocol: as §1
# LOX IMVI = assay: NCI-60 cell line panel: LOX IMVI; details: Melanoma; for IC50: Homo sapiens; for TGI: total growth inhibition
# Protocol: as §1
# TK-10 = assay: NCI-60 cell line panel: TK-10; details: Renal Cancer; for IC50: Homo sapiens; for TGI: total growth inhibition
# Protocol: as §1
# HT29 = assay: NCI-60 cell line panel: HT29; details: for TGI: Colon Cancer, total growth inhibition; for IC50: Homo sapiens, HT-29, Colon Cancer
# Protocol: as §1
# NCI-H322M = assay: NCI-60 cell line panel: NCI-H322M; details: Non-Small Cell Lung Cancer; for IC50: Homo sapiens; for TGI: total growth inhibition
# Protocol: as §1
# SF-268 = assay: NCI-60 cell line panel: SF-268; details: CNS Cancer; for TGI: total growth inhibition; for IC50: Homo sapiens
# Protocol: as §1
# SNB-75 = assay: NCI-60 cell line panel: SNB-75; set-up: TGI: unit not given here; details: CNS Cancer; for TGI: total growth inhibition; for IC50: Homo sapiens
# Protocol: as §1
# MALME-3M = assay: NCI-60 cell line panel: MALME-3M; details: Melanoma; for IC50: Homo sapiens; for TGI: total growth inhibition, in µM (unit assumed)
# Protocol: as §1
# SN12C = assay: NCI-60 cell line panel: SN12C; details: Renal Cancer; for IC50: Homo sapiens; for TGI: total growth inhibition
# Protocol: as §1
# ACHN = assay: NCI-60 cell line panel: ACHN; details: Renal Cancer; for IC50: Homo sapiens; for TGI: total growth inhibition
# Protocol: as §1
# K-562 = assay: NCI-60 cell line panel: K-562; set-up: TGI: unit not given here; details: for IC50: Homo sapiens, K562, Leukemia; for TGI: Leukemia, total growth inhibition
# Protocol: as §1
# MDA-MB-435 = assay: NCI-60 cell line panel: MDA-MB-435; set-up: TGI: unit not given here; details: Melanoma; for IC50: Homo sapiens; for TGI: total growth inhibition
# Protocol: as §1
# MDA-MB-468 = assay: NCI-60 cell line panel: MDA-MB-468; details: Breast Cancer; for TGI: total growth inhibition; for IC50: Homo sapiens
# Protocol: as §1
structure (smiles),measurement,setting,value
"CC(C)NC(=O)c1cc(-c2ccc(NC(=O)Nc3ccc(N4CCN(C)CC4)c(C(F)(F)F)c3)cc2)nc2cccnc12 [Compound 13e, N-Isopropyl-2-(4-(3-(4-(4-methylpiperazin-1-yl)-3-(trifluoromethyl)phenyl)ureido)phenyl)-1,5-naphthyridine-4-carboxamide]",IC50,SK-OV-3,2930 nM
same,TGI,SK-OV-3,8230 nM
same,IC50,UACC-257,690 nM
same,TGI,UACC-257,1430 nM
same,IC50,SK-MEL-5,670 nM
same,TGI,SK-MEL-5,1210 nM
same,IC50,Hep3B,1760 ± 10 nM
same,IC50,HOP-62,870 nM
same,TGI,HOP-62,1940 nM
same,inhibition activity against hepatocellular carcinoma cell lines compared with sorafenib,[1],higher inhibition activity than sorafenib
same,TGI,T-47D,24700 nM
same,IC50,T-47D,7620 nM
same,IC50,NCI/ADR-RES,1170 nM
same,TGI,NCI/ADR-RES,3.71
same,IC50,PC-3,720 nM
same,TGI,PC-3,1520 nM
same,IC50,UACC-62,660 nM
same,TGI,UACC-62,1240 nM
same,IC50,DU-145,720 nM
same,TGI,DU-145,1350 nM
same,IC50,OVCAR-8,840 nM
same,TGI,OVCAR-8,1.95
same,IC50,HOP-92,700 nM
same,TGI,HOP-92,1.33
same,IC50,A498,4710 nM
same,TGI,A498,9610 nM
same,IC50,NCI-H460,700 nM
same,TGI,NCI-H460,1310 nM
same,IC50,CAKI-1,650 nM
same,TGI,CAKI-1,1.22
same,IC50,LOX IMVI,620 nM
same,TGI,LOX IMVI,1150 nM
same,IC50,TK-10,710 nM
same,TGI,TK-10,1310 nM
same,TGI,HT29,1370 nM
same,IC50,HT29,670 nM
same,IC50,NCI-H322M,710 nM
same,TGI,NCI-H322M,1550 nM
same,TGI,SF-268,1620 nM
same,IC50,SF-268,700 nM
same,TGI,SNB-75,3.97
same,IC50,SNB-75,590 nM
same,IC50,MALME-3M,640 nM
same,TGI,MALME-3M,1.18
same,IC50,SN12C,680 nM
same,TGI,SN12C,1260 nM
same,IC50,ACHN,640 nM
same,TGI,ACHN,1180 nM
same,IC50,K-562,920 nM
same,TGI,K-562,>38.8
same,IC50,MDA-MB-435,620 nM
same,TGI,MDA-MB-435,1.26
same,TGI,MDA-MB-468,1360 nM
same,IC50,MDA-MB-468,710 nM
"CCN1CCN(c2ccc(NC(=O)Nc3ccc(-c4cc(C(=O)NC)c5ncccc5n4)cc3)cc2C(F)(F)F)CC1 [Compound 13c, 2-(4-(3-(4-(4-Ethylpiperazin-1-yl)-3-(trifluoromethyl)phenyl)ureido)phenyl)-N-methyl-1,5-naphthyridine-4-carboxamide]",IC50,SK-OV-3,3480 nM
same,TGI,SK-OV-3,7500 nM
same,IC50,UACC-257,3050 nM
same,TGI,UACC-257,5990 nM
same,IC50,SK-MEL-5,2050 nM
same,TGI,SK-MEL-5,4260 nM
same,IC50,HOP-62,2790 nM
same,TGI,HOP-62,5410 nM
same,inhibition activity against hepatocellular carcinoma cell lines compared with sorafenib,[1],higher inhibition activity than sorafenib
same,TGI,T-47D,> 18000 nM
same,IC50,T-47D,3720 nM
same,IC50,NCI/ADR-RES,1780 nM
same,TGI,NCI/ADR-RES,8.09
same,IC50,PC-3,2880 nM
same,TGI,PC-3,6030 nM
same,IC50,UACC-62,3060 nM
same,TGI,UACC-62,5660 nM
same,IC50,DU-145,2230 nM
same,TGI,DU-145,4900 nM
same,IC50,OVCAR-8,3850 nM
same,TGI,OVCAR-8,10.50
same,IC50,HOP-92,2450 nM
same,TGI,HOP-92,5.67
same,IC50,A498,2740 nM
same,TGI,A498,5310 nM
same,IC50,NCI-H460,660 nM
same,TGI,NCI-H460,2930 nM
same,IC50,CAKI-1,3010 nM
same,TGI,CAKI-1,5.60
same,IC50,LOX IMVI,670 nM
same,TGI,LOX IMVI,2660 nM
same,IC50,TK-10,3860 nM
same,TGI,TK-10,6630 nM
same,TGI,HT29,2110 nM
same,IC50,HT29,530 nM
same,IC50,NCI-H322M,2800 nM
same,TGI,NCI-H322M,5200 nM
same,TGI,SF-268,7000 nM
same,IC50,SF-268,3090 nM
same,TGI,SNB-75,3.82
same,IC50,SNB-75,840 nM
same,IC50,MALME-3M,290 nM
same,TGI,MALME-3M,0.53
same,IC50,SN12C,2770 nM
same,TGI,SN12C,5300 nM
same,IC50,ACHN,2390 nM
same,TGI,ACHN,4730 nM
same,IC50,K-562,660 nM
same,TGI,K-562,>18.0
same,IC50,MDA-MB-435,270 nM
same,TGI,MDA-MB-435,0.56
same,TGI,MDA-MB-468,5030 nM
same,IC50,MDA-MB-468,2480 nM
